Holding throughout (assay type): cell-based
The target in one experiment is T1, αvβ3 (Homo sapiens, UniProt P05106+P06756).
T1 construct: expressed in transfected cells; host or cells: K562
Briefly: Cell adhesion assay, K562-αvβ3 (LAP-b1). The conditions noted are these: K562-αvβ3 cells, ligand LAP-b1, 2 mM MgCl2; for IC50: mean, read-out: αvβ3 pIC50 (mean affinity, cell Adhesion Assay) (converted). The method, then:
(§1) Reagents and methods utilised are as described [Ludbrook et al, Biochem. J. 2003, 369, 311 and Macdonald et al. ACS Med. Chem. Lett. 2014, 5, 1207-1212 for αvβ8 assay), with the following points of clarification. The following cell lines are used, with ligands in brackets: K562-αvβ3 (LAP-b1), K562-αvβ5 (Vitronectin), K562-αvβ6 (LAP-b1), K562-αvβ8 (LAP-b1), A549-αvβ1 (LAP-b1). The divalent cation used to facilitate adhesion is 2 mM MgCl2. Adhesion is quantified by cell labelling with the fluorescent dye BCECF-AM (Life Technologies), where cell suspensions at 3×10^6 cells/mL are incubated with 0.33 uL/mL of 30 mM BCECF-AM at 37° C. for 10 minutes, then 50 μL/well are dispensed into the 96-well assay plate. At the assay conclusion cells that adhered are lysed using 50 μL/well of 0.5% Triton X-100 in H2O to release fluorescence. Fluorescence intensity is detected using an Envision® plate reader (Perkin Elmer). For active antagonists in the assay, data is fitted to a 4 parameter logistic equation for IC50 determinations.

The target in the next experiment is T2, αvβ1 (Homo sapiens, UniProt P05556+P06756).
T2 construct: host or cells: A549
Briefly: Cell adhesion assay, A549-αvβ1 (LAP-b1). The conditions noted are these: A549-αvβ1 cells, ligand LAP-b1, 2 mM MgCl2; for IC50: mean, read-out: αvβ1 pIC50 (mean affinity, cell Adhesion Assay) (converted). As for the experimental part: as §1

The target of another experiment is T3, αvβ5 (Homo sapiens, UniProt P06756+P18084).
T3 construct: expressed in transfected cells; host or cells: K562
T3 sequence (P06756 31-889 limits assumed): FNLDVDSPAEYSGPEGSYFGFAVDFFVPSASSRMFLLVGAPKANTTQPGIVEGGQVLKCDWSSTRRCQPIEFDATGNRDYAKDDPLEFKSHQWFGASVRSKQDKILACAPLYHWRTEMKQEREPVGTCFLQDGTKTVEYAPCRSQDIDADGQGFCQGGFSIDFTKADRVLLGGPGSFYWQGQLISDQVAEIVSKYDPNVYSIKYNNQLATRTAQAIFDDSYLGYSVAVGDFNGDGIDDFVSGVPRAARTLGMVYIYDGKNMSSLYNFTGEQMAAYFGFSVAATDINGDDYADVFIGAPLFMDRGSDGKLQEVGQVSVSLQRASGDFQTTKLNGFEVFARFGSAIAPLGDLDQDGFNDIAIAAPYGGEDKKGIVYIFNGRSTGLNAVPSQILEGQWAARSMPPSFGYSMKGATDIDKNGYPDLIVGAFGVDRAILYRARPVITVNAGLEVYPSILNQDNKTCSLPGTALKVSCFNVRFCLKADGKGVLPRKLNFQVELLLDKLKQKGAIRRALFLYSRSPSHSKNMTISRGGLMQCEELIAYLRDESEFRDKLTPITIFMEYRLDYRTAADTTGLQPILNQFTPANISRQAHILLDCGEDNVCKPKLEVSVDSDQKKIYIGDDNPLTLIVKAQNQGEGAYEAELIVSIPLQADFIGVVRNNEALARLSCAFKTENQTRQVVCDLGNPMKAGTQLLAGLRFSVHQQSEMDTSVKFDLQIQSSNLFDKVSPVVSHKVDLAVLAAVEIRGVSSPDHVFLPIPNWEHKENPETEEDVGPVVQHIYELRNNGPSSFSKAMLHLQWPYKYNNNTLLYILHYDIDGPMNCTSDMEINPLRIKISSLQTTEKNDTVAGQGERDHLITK
T3 sequence (P06756 891-1048 partner limits assumed): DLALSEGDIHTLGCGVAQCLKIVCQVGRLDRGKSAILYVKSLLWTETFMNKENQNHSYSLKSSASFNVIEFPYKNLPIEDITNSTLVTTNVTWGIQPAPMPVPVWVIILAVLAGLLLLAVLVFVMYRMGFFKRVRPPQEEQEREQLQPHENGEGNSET
T3 sequence (P18084 24-799): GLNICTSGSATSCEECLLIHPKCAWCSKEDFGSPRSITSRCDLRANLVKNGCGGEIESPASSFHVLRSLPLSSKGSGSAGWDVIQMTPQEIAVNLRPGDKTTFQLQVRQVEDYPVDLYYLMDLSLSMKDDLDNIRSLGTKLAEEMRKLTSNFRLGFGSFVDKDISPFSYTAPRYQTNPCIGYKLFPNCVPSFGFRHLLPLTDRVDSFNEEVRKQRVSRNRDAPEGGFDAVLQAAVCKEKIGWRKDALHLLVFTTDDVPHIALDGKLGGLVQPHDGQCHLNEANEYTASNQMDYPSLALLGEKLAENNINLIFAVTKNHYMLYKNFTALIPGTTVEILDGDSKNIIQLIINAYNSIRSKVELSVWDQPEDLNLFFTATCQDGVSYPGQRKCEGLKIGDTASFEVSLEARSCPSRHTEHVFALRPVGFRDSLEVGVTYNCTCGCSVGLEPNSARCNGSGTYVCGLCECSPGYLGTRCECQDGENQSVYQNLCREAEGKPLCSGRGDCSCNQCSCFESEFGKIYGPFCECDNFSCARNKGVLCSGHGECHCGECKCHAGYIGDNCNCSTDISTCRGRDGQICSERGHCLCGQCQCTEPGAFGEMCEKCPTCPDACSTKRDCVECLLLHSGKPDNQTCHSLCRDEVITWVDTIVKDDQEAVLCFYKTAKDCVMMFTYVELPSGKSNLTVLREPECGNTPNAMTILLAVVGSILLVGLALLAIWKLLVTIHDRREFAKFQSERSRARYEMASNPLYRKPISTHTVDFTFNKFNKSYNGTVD
Put plainly: Cell adhesion assay, K562-αvβ5 (Vitronectin). To be noted: K562-αvβ5 cells, ligand Vitronectin, 2 mM MgCl2; for IC50: mean, read-out: αvβ5 pIC50 (mean affinity, cell Adhesion Assay) (converted). As for the experimental part: as §1

The target in another experiment is T4, αvβ6 (Homo sapiens, UniProt P06756+P18564).
T4 construct: expressed in transfected cells; host or cells: K562
T4 sequence (P06756 31-889 limits assumed): as the sequence (P06756 31-889 limits assumed) above
T4 sequence (P06756 891-1048 partner limits assumed): as the sequence (P06756 891-1048 partner limits assumed) above
T4 sequence (P18564 22-788): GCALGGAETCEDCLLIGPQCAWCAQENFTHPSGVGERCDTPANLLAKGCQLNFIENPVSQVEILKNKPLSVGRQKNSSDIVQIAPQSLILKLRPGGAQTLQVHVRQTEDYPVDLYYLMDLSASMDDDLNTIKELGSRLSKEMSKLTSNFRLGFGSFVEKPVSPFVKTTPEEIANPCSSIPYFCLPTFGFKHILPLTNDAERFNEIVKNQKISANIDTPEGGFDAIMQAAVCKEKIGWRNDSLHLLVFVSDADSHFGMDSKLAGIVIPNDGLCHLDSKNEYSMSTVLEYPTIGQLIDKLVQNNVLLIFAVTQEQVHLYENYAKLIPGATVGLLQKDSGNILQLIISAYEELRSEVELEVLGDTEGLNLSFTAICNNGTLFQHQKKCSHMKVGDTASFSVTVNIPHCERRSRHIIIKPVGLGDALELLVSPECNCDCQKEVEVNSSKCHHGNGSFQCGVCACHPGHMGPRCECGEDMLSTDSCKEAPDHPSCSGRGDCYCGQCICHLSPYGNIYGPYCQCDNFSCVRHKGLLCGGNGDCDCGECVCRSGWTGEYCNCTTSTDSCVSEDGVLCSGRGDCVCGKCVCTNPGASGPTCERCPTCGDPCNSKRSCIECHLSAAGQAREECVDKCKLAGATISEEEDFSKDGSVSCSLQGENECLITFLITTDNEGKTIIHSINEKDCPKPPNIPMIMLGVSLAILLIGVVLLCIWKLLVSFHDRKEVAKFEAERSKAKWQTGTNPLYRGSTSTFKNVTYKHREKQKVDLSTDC
Put plainly: Cell adhesion assay, K562-αvβ6 (LAP-b1). The conditions noted are these: K562-αvβ6 cells, ligand LAP-b1, 2 mM MgCl2; for IC50: mean, read-out: αvβ6 pIC50 (mean affinity, cell Adhesion Assay) (converted). As for the experimental part:
as §1

A further experiment concerns the target T5, αvβ8 (Homo sapiens, UniProt P06756+P26012).
T5 construct: expressed in transfected cells; host or cells: K562
Put plainly: Cell adhesion assay, K562-αvβ8 (LAP-b1). The conditions noted are these: K562-αvβ8 cells, ligand LAP-b1, 2 mM MgCl2; for IC50: mean, read-out: αvβ8 pIC50 (mean affinity, cell Adhesion Assay) (converted). The method, then: as §1

Here are results for three compounds from US20210206758A1, “NAPHTHYRIDINES AS INTEGRIN ANTAGONISTS” (GlaxoSmithKline Intellectual Property Development Limited, priority 2016, published 2021).

T1 sequence (P06756 31-889 limits assumed): as the sequence (P06756 31-889 limits assumed) above
T1 sequence (P06756 891-1048 partner limits assumed): as the sequence (P06756 891-1048 partner limits assumed) above
T1 sequence (P05106 27-788): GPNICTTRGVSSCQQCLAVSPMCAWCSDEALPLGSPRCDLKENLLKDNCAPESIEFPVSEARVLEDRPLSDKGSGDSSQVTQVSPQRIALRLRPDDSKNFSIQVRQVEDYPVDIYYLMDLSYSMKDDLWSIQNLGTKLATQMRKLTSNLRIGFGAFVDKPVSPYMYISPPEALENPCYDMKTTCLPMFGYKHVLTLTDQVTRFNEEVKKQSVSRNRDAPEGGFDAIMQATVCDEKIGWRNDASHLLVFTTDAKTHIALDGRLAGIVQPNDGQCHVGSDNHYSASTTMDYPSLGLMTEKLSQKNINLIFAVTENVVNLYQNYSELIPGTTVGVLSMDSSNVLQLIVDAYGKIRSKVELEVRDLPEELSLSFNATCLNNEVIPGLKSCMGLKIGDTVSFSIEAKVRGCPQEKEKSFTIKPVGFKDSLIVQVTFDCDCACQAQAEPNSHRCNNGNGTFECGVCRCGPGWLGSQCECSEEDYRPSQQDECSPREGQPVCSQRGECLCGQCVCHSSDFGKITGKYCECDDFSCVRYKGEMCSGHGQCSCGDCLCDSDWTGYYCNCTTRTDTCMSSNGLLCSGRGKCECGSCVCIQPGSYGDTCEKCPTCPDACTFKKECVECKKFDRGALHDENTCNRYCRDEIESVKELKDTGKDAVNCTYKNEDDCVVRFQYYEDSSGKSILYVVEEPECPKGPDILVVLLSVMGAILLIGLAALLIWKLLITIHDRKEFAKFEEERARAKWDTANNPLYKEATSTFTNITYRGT
T5 sequence (P06756 31-889 limits assumed): as the sequence (P06756 31-889 limits assumed) above
T5 sequence (P06756 891-1048 partner limits assumed): as the sequence (P06756 891-1048 partner limits assumed) above
T5 sequence (P26012 43-769): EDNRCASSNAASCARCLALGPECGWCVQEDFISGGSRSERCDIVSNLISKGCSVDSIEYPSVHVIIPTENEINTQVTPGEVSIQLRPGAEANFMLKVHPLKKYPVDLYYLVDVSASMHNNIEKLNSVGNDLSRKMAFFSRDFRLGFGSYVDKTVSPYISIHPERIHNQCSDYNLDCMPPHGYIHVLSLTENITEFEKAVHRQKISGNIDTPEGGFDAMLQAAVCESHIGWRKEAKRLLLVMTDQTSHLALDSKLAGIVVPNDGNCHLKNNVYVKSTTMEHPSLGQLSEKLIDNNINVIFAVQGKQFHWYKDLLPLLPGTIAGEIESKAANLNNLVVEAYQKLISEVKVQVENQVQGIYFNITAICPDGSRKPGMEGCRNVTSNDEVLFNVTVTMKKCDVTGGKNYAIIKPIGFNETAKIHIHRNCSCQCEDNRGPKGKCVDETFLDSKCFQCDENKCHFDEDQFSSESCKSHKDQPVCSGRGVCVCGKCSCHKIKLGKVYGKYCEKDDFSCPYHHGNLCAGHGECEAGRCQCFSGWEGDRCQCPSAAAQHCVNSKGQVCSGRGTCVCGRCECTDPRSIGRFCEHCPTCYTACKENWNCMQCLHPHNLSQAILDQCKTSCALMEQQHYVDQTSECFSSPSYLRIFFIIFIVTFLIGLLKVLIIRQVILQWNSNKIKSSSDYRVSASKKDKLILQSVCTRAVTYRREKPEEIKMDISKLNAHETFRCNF

For `CO[C@@H](C)COc1cccc([C@H](CC(=O)O)CN2CC[C@@](F)(CCc3ccc4c(n3)NCCC4)C2)c1` [Example 6], the IC50 at αvβ3 is 63.1 nM; at αvβ1, 126 nM; at αvβ5 it was 316 nM; on αvβ6, 12.6 nM; on αvβ8 it was 39.8 nM.

Regarding `COCC(C)(C)Oc1cccc([C@H](CC(=O)O)CN2CC[C@@](F)(CCc3ccc4c(n3)NCCC4)C2)c1` [Example 7, (S)-4-((S)-3-Fluoro-3-(2-(5,6,7,8-tetrahydro-1,8-naphthyridin-2-yl)ethyl)pyrrolidin-1-yl)-3-(3-((1-methoxy-2-methylpropan-2-yl)oxy)phenyl)butanoic acid], the IC50 was 79.4 nM on αvβ3; 63.1 nM on αvβ1; 63.1 nM at αvβ5; 20 nM on αvβ6; 50.1 nM on αvβ8.

`O=C(O)/C=C\C(=O)O.O=C(O)C[C@H](CN1CC[C@@](F)(CCc2ccc3c(n2)NCCC3)C1)c1cccc(O[C@@H]2CCOC2)c1` [Example 17, (S)-4-((S)-3-Fluoro-3-(2-(5,6,7,8-tetrahydro-1,8-naphthyridin-2-yl)ethyl)pyrrolidin-1-yl)-3-(3-(((R)-tetrahydrofuran-3-yl)oxy)phenyl)butanoic acid (1:1) maleate salt]: the “αvβ3 pIC50 (mean affinity, cell Adhesion Assay)” value at αvβ3 was found to be 7.3. In addition, at αvβ1, the “αvβ1 pIC50 (mean affinity, cell Adhesion Assay)” value is listed as 6.9. Further, the “αvβ5 pIC50 (mean affinity, cell Adhesion Assay)” value at αvβ5 amounted to 8.1. Further, the “αvβ6 pIC50 (mean affinity, cell Adhesion Assay)” value on αvβ6 amounted to 8.2. In addition, the “αvβ8 pIC50 (mean affinity, cell Adhesion Assay)” value at αvβ8 was determined as 7.7.
